Test results as given in US7192975B2, “Arylimidazole derivatives, preparation and therapeutic used thereof” (Societe de Conseils de Recherches Et d''Applications …, priority 2002, dated 2007).
Where a name gives a salt, the structure may show the parent alone.

`Cl.NC(=Nc1cccc(-c2c[nH]c(C/N=C(/N)c3cccs3)n2)c1)c1cccs1` [Example 11, N′-{3[2-({[(1E)-amino(thien-2-yl)methylene]-amino}methyl)-1H-imidazol-4-yl]phenyl}thiophene-2-carboximidamide hydrochloride] showed a melting point greater than 300 °C.
For `CCCCOC(=O)NCCc1nc(-c2ccc(-c3ccc(N=C(N)c4cccs4)cc3)cc2)c[nH]1` (as salt: hydrochloride) [Example 3, butyl 2-[4-(4′-{[(1Z)-amino(thien-2-yl)methylene]amino}-1,1′-biphenyl-4-yl-1H-imidazol-2-yl]ethylcarbamate hydrochloride], the melting point was 97 to 98 °C.
Compound `Cl.NC(=Nc1cccc(-c2c[nH]c(CC/N=C(/N)c3cccs3)n2)c1)c1cccs1` [Example 24, N′-{3-[2-(2{[(1E)-amino(thien-2-yl)methylene]amino}ethyl)-1H-imidazol-4-yl]phenyl}thiophene-2-carboximidamide hydrochloride] has a melting point greater than 245 °C.
`Cl.NC(=Nc1ccc(-c2c[nH]c(CNCC(c3ccccc3)c3ccccc3)n2)cc1)c1cccs1` [Example 23, N′[4-(2-{[(2,2-diphenylethyl)amino]methyl}-1H-imidazol-4-yl)phenyl]thiophene-2-carboximidamide hydrochloride] showed a melting point greater than 250 °C.
Work on `Cl.NC(=Nc1ccc(-c2c[nH]c(CCNC3CCCCC3)n2)cc1)c1cccs1` [Example 5, N′-(4-{2-[2-(cyclohexylamino)ethyl]-1H-imidazol-4-yl}phenyl)thiophene-2-carboximidamide hydrochloride] yielded a melting point of 185 to 186 °C.
Work on `NC(=Nc1cccc(-c2c[nH]c(CNC3CCCCC3)n2)c1)c1cccs1` (as salt: hydrochloride) [Example 6, N′-(3{2-[cyclohexylamino)methyl]-1H-imidazol-4-yl}phenyl)thiophene-2-carboximidamide hydrochloride] yielded a melting point greater than 225 °C.
`CCCCCC(CCCCC)c1nc(-c2cccc(N=C(N)c3cccs3)c2)c[nH]1.Cl` [Example 14, N′-{3-[2(1-pentylhexyl)-1H-imidazol-4-yl]phenyl}thiophene-2-carboximidamide hydrochloride] gave a melting point of 163.3 °C.
Work on `Cl.NC(=Nc1ccc(-c2c[nH]c(CN(Cc3ccccc3)Cc3ccccc3)n2)cc1)c1cccs1` [Example 8, N′-(4{2-[(dibenzylamino)methyl]-1H-imidazol-4-yl}phenyl)thiophene-2-carboximidamide hydrochloride] yielded a melting point of 150 to 151 °C.
In the case of `Cl.NC(=Nc1ccc(-c2c[nH]c(CCC3CCCCC3)n2)cc1)c1cccs1` [Example 15, N′-{4-[2-(2-cyclohexylethyl)-1H-imidazol-4-yl]phenyl}thiophene-2-carboximidamide hydrochloride], the melting point is reported as 196.2 °C.
For `CNCc1nc(-c2ccc(N=C(N)c3cccs3)cc2)c[nH]1.Cl` [Example 21, N′-(4-{2-[(methylamino)methyl]-1H-imidazol-4-yl}phenyl)thiophene-2-carboximidamide hydrochloride], the melting point was greater than 250 °C.
With `CC(C)Cc1ccc(Cc2nc(-c3cccc(N=C(N)c4cccs4)c3)c[nH]2)cc1.Cl` [Example 27, N′-{3-[2-(4-isobutylbenzyl)-1H-imidazol-4-yl]phenyl}thiophene-2-carboximidamide hydrochloride] the melting point was 214 to 216 °C.
With `Cl.NC(=Nc1ccc(-c2c[nH]c(CNC3CCCCCC3)n2)cc1)c1cccs1` [Example 20, N′-(4-{2-[(cycloheptylamino)methyl]-1H-imidazol-4-yl}phenyl)thiophene-2-carboximidamide hydrochloride] the melting point was 264 to 265 °C.
For `CCCCN(CCc1nc(-c2cccc(/N=C(/N)c3cccs3)c2)c[nH]1)C(=O)O.Cl` [Example 2, butyl-2[4(3-{[(1E)-amino(thien-2yl)methylene]-amino}phenyl)-1H-imidazol-2-yl]ethylcarbamate hydrochloride], the melting point was 210 to 212 °C.
With `Cl.NC(=Nc1ccc(-c2c[nH]c(CNCc3ccccc3)n2)cc1)c1cccs1` [Example 9, N′-(4-{2-[(benzylamino)methyl]-1H-imidazol-4-yl}phenyl)thiophene-2-carboximidamide hydrochloride] the melting point was 228 to 229 °C.
In the case of `Cl.NC(=Nc1ccc(-c2c[nH]c(C/N=C(/N)c3cccs3)n2)cc1)c1cccs1` [Example 12, N′-{4-[2-({[(1E)-amino(thien-2-yl)methylene]-amino}methyl)-1H-imidazol-4-yl]phenyl}thiophene-2-carboximidamide hydrochloride], the melting point is reported as 227 to 228 °C.
Work on `CN(Cc1nc(-c2ccc(N=C(N)c3cccs3)cc2)c[nH]1)C1CCCCC1.Cl` [Example 7, N′-[4-(2-{[cyclohexyl(methyl)amino]methyl}-1H-imidazol-4-yl)phenyl]thiophene-2-carboximidamide hydrochloride] yielded a melting point of 240 to 241 °C.
Work on `Cl.NC(=Nc1ccc(-c2c[nH]c(CNC3CCC3)n2)cc1)c1cccs1` [Example 22, N′-(4-{2-[(cyclobutylamino)methyl]-1H-imidazol-4-yl}phenyl)thiophene-2-carboximidamide hydrochloride] yielded a melting point of 263 to 264 °C.
With `NC(=N[N+](=O)[O-])Nc1ccc(-c2c[nH]c(CCC3CCCCC3)n2)cc1` (as salt: hydrochloride) [Example 19, N{4-[2-(2-cyclohexylethyl)-1H-imidazol-4-yl]phenyl}N″-nitroguanidine hydrochloride] the melting point was 185 to 186 °C.
`N=C(Nc1cccc(-c2c[nH]c(CCC3CCCCC3)n2)c1)c1cccs1` (as salt: hydrochloride) [Example 13, N-{3[2-(2-cyclohexlethyl)-1H-imidazol-4-yl]phenyl}thiophene-2-carboximidamide hydrochloride] gave a melting point greater than 191 °C.
In the case of `Cl.NC(=Nc1cccc(-c2c[nH]c(CCCC3CCCCC3)n2)c1)c1cccs1` [Example 17, N′-{3-[2-(3-cyclohexylpropyl)-1H-imidazol-4-yl]phenyl}thiophene-2-carboximidamide hydrochloride], the melting point is reported as 180 to 181 °C.
